Test results reported in PubChem BioAssay (NCI).
“And” between values parts separate entries of the source, which are not always exact repeats. Equal entries are not always repeated.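 How tested: cells in 96-well plates exposed to compound for 48 hours at five concentrations. At the GI50, growth is halved. TGI denotes the concentration required for complete inhibition of growth.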

Legend:
Test in all cases: NCI anticancer screen, dose series, 48 h
RPMI-8226 leukemia = tested on: RPMI-8226 leukemia
MCF7 breast = tested on: MCF7 breast
HS 578T breast = tested on: HS 578T breast
SNB-19 CNS = tested on: SNB-19 CNS
UACC-62 melanoma = tested on: UACC-62 melanoma
MDA-MB-231 breast = tested on: MDA-MB-231 breast
A498 renal = tested on: A498 renal
HT29 colon = tested on: HT29 colon

SMILES | GI50 (RPMI-8226 leukemia) | TGI (RPMI-8226 leukemia) | GI50 (MCF7 breast) | TGI (MCF7 breast) | GI50 (HS 578T breast) | TGI (HS 578T breast) [µM] | GI50 (SNB-19 CNS) | TGI (SNB-19 CNS) | GI50 (UACC-62 melanoma) | TGI (UACC-62 melanoma) | GI50 (MDA-MB-231 breast) | TGI (MDA-MB-231 breast) | GI50 (A498 renal) | TGI (A498 renal) | GI50 (HT29 colon) | TGI (HT29 colon)
COc1ccc(/C=C(/C)[N+](=O)[O-])cc1OC | 0.971 µM and 1.6 µM | 3.43 µM and 5.18 µM | 1.23 µM and 1.09 µM | 3.26 µM and 2.57 µM | 6.2 µM and 5.55 µM | > 100 | 6.82 µM and 3.16 µM | 20 µM and 12.6 µM | 1.78 µM and 1.72 µM | 3.62 µM and 3.89 µM | 1.97 µM and 2.38 µM | 4.26 µM and 5.02 µM | 5.13 µM and 4.73 µM | 17.2 µM and 16.6 µM | 2.62 µM and 1.41 µM | 5.92 µM and 4.07 µM
O=C(CN1N=C(c2ccc(F)cc2)CCC1=O)Nc1nc2ccccc2s1 | 2.29 µM | 6.17 µM | 50.1 µM | > 100 µM | 6.75 µM | 66 | > 96.7 µM | > 100 µM | 7.62 µM | > 100 µM | 1.24 µM | 3.47 µM | 22.8 µM | > 100 µM | 3.32 µM | 11.5 µM
CCC(=O)Nc1ccc(N2C(=O)/C(=C/c3ccc(OC)cc3)N=C2c2ccccc2)cc1 | 4.67 µM | > 50 µM | 7.77 µM | > 50 µM | 14.1 µM | > 50 | 14.1 µM | > 50 µM | 3.67 µM | 17.7 µM | 4.31 µM | 14.5 µM | 10.4 µM | > 50 µM | 5.91 µM | > 50 µM
COc1ccc2c(-c3ccnc(Nc4cccc(OC(F)(F)F)c4)n3)cnn2n1 | 1.77 µM | > 21 µM | 1.07 µM | 6.15 µM | 0.835 µM | > 9.95 | 1.67 µM | > 23.2 µM | 0.863 µM | 6.94 µM | 3.63 µM | > 25 µM | 0.999 µM | 10.6 µM | 0.912 µM | 3.06 µM
COc1ccc(/C=C(\C)[N+](=O)[O-])cc1OC | 2.3 µM | 5.59 µM | 1.35 µM | 3.25 µM | 3.5 µM | 15.9 | 11.3 µM | 23.6 µM | 1.82 µM | 3.87 µM | 2.33 µM | 6.21 µM | 4.51 µM | 18.5 µM | 2.2 µM | 4.43 µM
C[n+]1c2ccccc2nc2c(N)cc(N)cc21 | 4.54 µM | 33.9 µM | 5.1 µM | 37.3 µM | 3.63 µM | 20.6 | 2.9 µM | 14.4 µM | 12.9 µM | 31.7 µM | 21.7 µM | > 100 µM | 69.2 µM | > 100 µM | 15.3 µM | > 100 µM
Fc1cccc(F)c1C(Nc1nncs1)Nc1nncs1 | – | > 100 µM | – | > 100 µM | – | > 100 | – | > 100 µM | – | > 100 µM | – | > 100 µM | – | > 100 µM | – | > 100 µM
Cc1ccncc1C(N)=O | > 100 µM | > 100 µM | > 100 µM | > 100 µM | > 100 µM | > 100 | > 100 µM | > 100 µM | > 100 µM | > 100 µM | > 100 µM | > 100 µM | > 100 µM | > 100 µM | > 100 µM | > 100 µM
COc1cccc(Oc2ccccc2NC(=O)CNC(=O)c2cccc3ccccc23)c1 | 0.953 µM | 13.7 µM | 0.1 µM | > 25 µM | 0.381 µM | > 25 | 0.617 µM | > 25 µM | 0.209 µM | > 25 µM | 0.776 µM | 7.68 µM | 0.115 µM | 2.11 µM | 0.11 µM | 1.04 µM
CCOC(=O)c1cc2c(cc1Cl)SC(=Nc1ccccc1)N(S(=O)(=O)c1ccc(Br)s1)S2(=O)=O | 12.1 µM | 41.9 µM | 16.5 µM | 45.8 µM | 18.7 µM | 49.4 | 36.6 µM | > 100 µM | 14.4 µM | 28.1 µM | 14.1 µM | 30.6 µM | 16.2 µM | 34 µM | 31.2 µM | > 100 µM
CCc1c(C)nc2sc3c(N)ncnc3c2c1C | > 25 µM | > 25 µM | > 25 µM | > 25 µM | > 25 µM | > 25 | > 25 µM | > 25 µM | > 25 µM | > 25 µM | > 25 µM | > 25 µM | > 25 µM | > 25 µM | > 25 µM | > 25 µM
CSc1ccc(C2=NN(C(C)=O)C(c3ccc(-c4ccc(Cl)cc4)o3)C2)cc1 (stereo not drawn) | 23.8 µM | > 100 µM | 39.9 µM | > 100 µM | 49.8 µM | > 100 | > 100 µM | > 100 µM | 20.1 µM | > 100 µM | 19.3 µM | > 100 µM | 26 µM | 48 µM | 30.4 µM | > 100 µM
O=C(Nc1ccccc1OC(=O)c1ccccc1)c1ccccc1 | 38.6 µM | > 100 µM | 12.9 µM | > 100 µM | 4.72 µM | > 100 | 25.1 µM | > 100 µM | 64.8 µM | > 100 µM | 6.44 µM | > 100 µM | 12.7 µM | 60.1 µM | 3.76 µM | 41.4 µM
CC(=O)O[C@@H]1C[C@@]2(C)[C@@H]3CC=C4[C@@H](C[C@H](O)C(=O)C4(C)C)[C@]3(C)C(=O)C[C@]2(C)[C@H]1[C@@](C)(O)C(=O)/C=C/C(C)(C)OC(C)=O | – | > 32.2 µM | – | > 100 µM | – | > 100 | – | 7.38 µM | – | 27.9 µM | – | > 21.8 µM | – | 0.0591 µM | – | > 100 µM
CN1CCN(CCCCCN=c2cc3c(=O)n(CCCCCN4CCN(C)CC4)c(=O)c4c(NCCCCCN5CCN(C)CC5)cc5c(O)n(CCCCCN6CCN(C)CC6)c(=O)c2c5c4-3)CC1 | 3.02 µM | 11.3 µM | 2.52 µM | 7.41 µM | 2.64 µM | 6.86 | 2.14 µM | 7.16 µM | 4.19 µM | 15.7 µM | 2.38 µM | 7.22 µM | 19.2 µM | 60 µM | 1.45 µM | 5.31 µM
O=Nc1c(-c2c(O)[nH]c3ncccc23)[nH]c2ccccc12 | – | > 79 µM | 18.7 µM | > 100 µM | 2.71 µM | > 100 | > 100 µM | > 100 µM | – | > 100 µM | 16 µM | > 100 µM | 1.93 µM | > 100 µM | > 94.2 µM | > 100 µM
